In ChEMBL document CHEMBL4266002, “Acyloxybenzyl and Alkoxyalkyl Prodrugs of a Fosmidomycin Surrogate as Antimalarial and Antitubercular Agents” (ACS Med Chem Lett, 2018):
pIC50: −log10 of the molar value.

How the values were obtained:
[1] = tested on: Plasmodium falciparum; experiment: Antiplasmodial activity against chloroquine-resistant Plasmodium falciparum K1 infected in human erythrocytes measured after 72 hrs Malstat/NBT reagent based assay; format: functional, organism-based; conditions: K1, 72 h
[2] = tested on: Mycobacterium tuberculosis; experiment: Antimicrobial activity against Mycobacterium tuberculosis H37Ra ATCC 25177 after 7 days by luminometric method; format: functional, organism-based; conditions: H37Ra ATCC 25177, 168 h
[3] = tested on: MRC5; experiment: Cytotoxicity against human MRC5 cells after 24 hrs by resazurin assay; format: cell-based; conditions: MRC5, 24 h
[4] = Selectivity index, ratio of IC50 for human MRC5 cells to IC50 for chloroquine-resistant Plasmodium falciparum K1 infected in human erythrocytes; format: toxicity, cell-based; conditions: read-out: Ratio IC50
[5] = Selectivity index, ratio of IC50 for human MRC5 cells to IC50 for Mycobacterium tuberculosis H37Ra ATCC 25177; format: toxicity; conditions: read-out: Ratio IC50
[6] = Stability in human serum at 1 mM after 30 to 60 mins by UPLC method; format: ADME, cell-free; conditions: 1000 µM
[7] = Oral bioavailability in patient with malaria; format: ADME, organism-based; conditions: human, in vivo
[8] = Half life in patient with malaria; format: ADME, organism-based; conditions: human, in vivo

Structure (SMILES)	pIC50 [1]	pIC50 [2]	pIC50 [3]	selectivity ratio [4]	selectivity ratio [5]	Stability [6]	bioavailability [7]	half-life [8]
CN(O)C(=O)CCCP(=O)(OCOC(=O)C(C)(C)C)OCOC(=O)C(C)(C)C	6.14	4.35	< 4.19	> 88	> 1.4	Stable	–	–
CN(O)C(=O)CCCP(=O)(O)O	–	< 4.19	–	–	–	–	–	–
CCCCCCCCCCCCOCCCOP(=O)(O)CCCC(=O)N(C)O	6.09	< 4.19	4.25	68	–	–	–	–
CCCCCCCCCCCCCCCCOCCCOP(=O)(CCCC(=O)N(C)O)OCCCOCCCCCCCCCCCCCCCC	4.38	< 4.19	< 4.19	> 1.5	–	–	–	–
CCCCOCCCOP(=O)(O)CCCC(=O)N(C)O	4.80	< 4.19	< 4.19	> 4	–	–	–	–
CC(C)OC(=O)OCOP(=O)(CCCC(=O)N(C)O)OCOC(=O)OC(C)C	7.10	< 4.19	4.25	743	–	Stable	–	–
CN(O)C(=O)CCCP(=O)(OCc1ccc(OC(=O)c2ccccc2)cc1)OCc1ccc(OC(=O)c2ccccc2)cc1	7.52	6.38	6.21	20	1.5	Stable	–	–
CCCCCCCCCCCCCCCCOCCCOP(=O)(O)CCCC(=O)N(C)O	6.02	< 4.19	4.61	26	–	–	–	–
CC(C)C(=O)Oc1ccc(COP(=O)(CCCC(=O)N(C)O)OCc2ccc(OC(=O)C(C)C)cc2)cc1	6.85	6.19	6.00	7.3	1.6	Stable	–	–
CCCCCCCCOCCCOP(=O)(O)CCCC(=O)N(C)O	5.72	< 4.19	< 4.19	> 34	–	–	–	–
CC(=O)Oc1ccc(COP(=O)(CCCC(=O)N(C)O)OCc2ccc(OC(C)=O)cc2)cc1	6.31	4.71	4.81	32	0.8	Stable	–	–
CN(O)C(=O)CCCP(=O)(OCc1ccc(OC(=O)C(C)(C)C)cc1)OCc1ccc(OC(=O)C(C)(C)C)cc1	6.80	6.37	6.01	6.1	2.3	Stable	–	–
CCCCCCCCC(=O)Oc1ccc(COP(=O)(CCCC(=O)N(C)O)OCc2ccc(OC(=O)CCCCCCCC)cc2)cc1	6.52	5.75	4.90	42	7.6	Stable	–	–
O=CN(O)CCCP(=O)([O-])O.[Na+] [FOSMIDOMYCIN SODIUM]	–	< 4.19	< 4.19	–	–	–	30%	2 h
CC(=O)N(O)CCCP(=O)(O)O [FR-900098]	–	< 4.19	–	–	–	–	–	–
